Results: patent US8048825B2, “Haloalkylsulfonanilide derivatives or salt thereof, herbicide comprising the derivatives as active ingredient, and use of the herbicide” (Nihon Nohyaku Co., Ltd., priority 2006, dated 2011)

Experiments:
Type in all cases: in vivo
[1] = system: Lindernia procumbens; assay: Herbicidal efficacy on paddy field weeds of pre-emergence stage (Pre), Test Example 1; conditions: 1000 g/ha as active ingredient, examined after 21 days
Method in brief: (§1)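 Clay-loam pots sown with Scirpus juncoides, covered with soil containing Lindernia procumbens seed, flooded to 5 cm. Next day formulated compound applied dropwise to water at 1000 g/ha a.i. Greenhouse-grown; growth inhibition versus untreated scored 0–5 after 21 days.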

[2] = system: Scirpus juncoides; assay: as above; conditions: 1000 g/ha as active ingredient, examined after 21 days
Method in brief: as §1

[3] = system: Lindernia procumbens; assay: Herbicidal effect on paddy field weeds of post-emergence stage (Post), Test Example 2; conditions: one-leaf stage, 1000 g/ha as active ingredient, examined after 21 days
Method in brief: (§2)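 Scirpus juncoides and Echinochloa crus-galli sown in clay loam, with Lindernia procumbens seed in the soil cover, under 5 cm flooding in greenhouse. At one-leaf stage, 1000 g/ha active ingredient applied to pot water. Efficacy scored visually 0–5 against untreated plants at 21 days after treatment.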

[4] = system: Echinochloa crus-galli; assay: as above; conditions: one-leaf stage, 1000 g/ha as active ingredient, examined after 21 days
Method in brief: as §2

[5] = system: Scirpus juncoides; assay: as above; conditions: one-leaf stage, 1000 g/ha as active ingredient, examined after 21 days
Method in brief: as §2

Row | Compound | Lindernia procumbens pre (herbicidal effect) [1] | Scirpus juncoides pre (herbicidal effect) [2] | Lindernia procumbens post (herbicidal effect) [3] | Echinochloa crus-galli post (herbicidal effect) [4] | Scirpus juncoides post (herbicidal effect) [5]
1 | CC(C)(C)COC(=O)N(c1ccccc1CN1CCC(C)(C)OC1=O)S(=O)(=O)C(F)(F)F [Compound 1-51] | 4 (90%-99% herbicidal effect, phytotoxicity) | 4 (90%-99% herbicidal effect, phytotoxicity) | 4 (90%-99% herbicidal effect, phytotoxicity) | 4 (90%-99% herbicidal effect, phytotoxicity) | 4 (90%-99% herbicidal effect, phytotoxicity)
2 | CCCCCOC(=O)N(c1ccccc1CN1CCC(C)(C)OC1=O)S(=O)(=O)C(F)(F)F [Compound 1-52] | 4 (90%-99% herbicidal effect, phytotoxicity) | 4 (90%-99% herbicidal effect, phytotoxicity) | 4 (90%-99% herbicidal effect, phytotoxicity) | 4 (90%-99% herbicidal effect, phytotoxicity) | 4 (90%-99% herbicidal effect, phytotoxicity)
3 | COCN(c1ccccc1CN1CCC(C)(C)OC1=O)S(=O)(=O)C(F)(F)F [Compound 1-55] | 4 (90%-99% herbicidal effect, phytotoxicity) | 4 (90%-99% herbicidal effect, phytotoxicity) | 4 (90%-99% herbicidal effect, phytotoxicity) | 4 (90%-99% herbicidal effect, phytotoxicity) | 4 (90%-99% herbicidal effect, phytotoxicity)
4 | CC1(C)CCN(Cc2ccccc2NS(=O)(=O)C(F)(F)F)C(=S)O1 [Compound 1-58] | 4 (90%-99% herbicidal effect, phytotoxicity) | 4 (90%-99% herbicidal effect, phytotoxicity) | 4 (90%-99% herbicidal effect, phytotoxicity) | 4 (90%-99% herbicidal effect, phytotoxicity) | 4 (90%-99% herbicidal effect, phytotoxicity)
5 | CC(C)COC(=O)N(c1ccccc1CN1CCC(C)(C)OC1=S)S(=O)(=O)C(F)(F)F [Compound 1-63] | 4 (90%-99% herbicidal effect, phytotoxicity) | 4 (90%-99% herbicidal effect, phytotoxicity) | 4 (90%-99% herbicidal effect, phytotoxicity) | 4 (90%-99% herbicidal effect, phytotoxicity) | 4 (90%-99% herbicidal effect, phytotoxicity)
6 | CC(C)(C)COC(=O)N(c1ccccc1CN1CCC(C)(C)OC1=S)S(=O)(=O)C(F)(F)F [Compound 1-64] | 4 (90%-99% herbicidal effect, phytotoxicity) | 4 (90%-99% herbicidal effect, phytotoxicity) | 4 (90%-99% herbicidal effect, phytotoxicity) | 4 (90%-99% herbicidal effect, phytotoxicity) | 4 (90%-99% herbicidal effect, phytotoxicity)
7 | CCC1(C)CCN(Cc2ccccc2NS(=O)(=O)C(F)(F)F)C(=O)O1 (stereo not shown) [Compound 1-69] | 4 (90%-99% herbicidal effect, phytotoxicity) | 4 (90%-99% herbicidal effect, phytotoxicity) | 4 (90%-99% herbicidal effect, phytotoxicity) | 4 (90%-99% herbicidal effect, phytotoxicity) | 4 (90%-99% herbicidal effect, phytotoxicity)
8 | CCOC(=O)N(c1ccccc1CN1CCC(C)(CC)OC1=O)S(=O)(=O)C(F)(F)F (stereo not shown) [Compound 1-71] | 4 (90%-99% herbicidal effect, phytotoxicity) | 4 (90%-99% herbicidal effect, phytotoxicity) | 4 (90%-99% herbicidal effect, phytotoxicity) | 4 (90%-99% herbicidal effect, phytotoxicity) | 4 (90%-99% herbicidal effect, phytotoxicity)
9 | CCC1(C)CCN(Cc2ccccc2N(C(=O)OCC(C)C)S(=O)(=O)C(F)(F)F)C(=O)O1 (stereo not shown) [Compound 1-74] | 4 (90%-99% herbicidal effect, phytotoxicity) | 4 (90%-99% herbicidal effect, phytotoxicity) | 4 (90%-99% herbicidal effect, phytotoxicity) | 4 (90%-99% herbicidal effect, phytotoxicity) | 4 (90%-99% herbicidal effect, phytotoxicity)
10 | CCC1(C)CCN(Cc2ccccc2N(C(=O)OCC(C)(C)C)S(=O)(=O)C(F)(F)F)C(=O)O1 (stereo not shown) [Compound 1-75] | 4 (90%-99% herbicidal effect, phytotoxicity) | 4 (90%-99% herbicidal effect, phytotoxicity) | 4 (90%-99% herbicidal effect, phytotoxicity) | 4 (90%-99% herbicidal effect, phytotoxicity) | 4 (90%-99% herbicidal effect, phytotoxicity)
11 | COC(=O)N(c1ccccc1CN1CCC(C)(C(F)(F)F)OC1=O)S(=O)(=O)C(F)(F)F (stereo not shown) [Compound 1-81] | 5 (100% herbicidal effect, phytotoxicity) | 4 (90%-99% herbicidal effect, phytotoxicity) | 5 (100% herbicidal effect, phytotoxicity) | 4 (90%-99% herbicidal effect, phytotoxicity) | 4 (90%-99% herbicidal effect, phytotoxicity)
12 | CCOC(=O)N(c1ccccc1CN1CCC(C)(C(F)(F)F)OC1=O)S(=O)(=O)C(F)(F)F (stereo not shown) [Compound 1-82] | 5 (100% herbicidal effect, phytotoxicity) | 5 (100% herbicidal effect, phytotoxicity) | 5 (100% herbicidal effect, phytotoxicity) | 4 (90%-99% herbicidal effect, phytotoxicity) | 4 (90%-99% herbicidal effect, phytotoxicity)
13 | CC(C)(C)COC(=O)N(c1ccccc1CN1CCC(C)(C(F)(F)F)OC1=O)S(=O)(=O)C(F)(F)F (stereo not shown) [Compound 1-86] | 4 (90%-99% herbicidal effect, phytotoxicity) | 4 (90%-99% herbicidal effect, phytotoxicity) | 4 (90%-99% herbicidal effect, phytotoxicity) | 4 (90%-99% herbicidal effect, phytotoxicity) | 4 (90%-99% herbicidal effect, phytotoxicity)
14 | CCC1(C(F)(F)F)CCN(Cc2ccccc2NS(=O)(=O)C(F)(F)F)C(=O)O1 (stereo not shown) [Compound 1-91] | 5 (100% herbicidal effect, phytotoxicity) | 4 (90%-99% herbicidal effect, phytotoxicity) | 5 (100% herbicidal effect, phytotoxicity) | 4 (90%-99% herbicidal effect, phytotoxicity) | 4 (90%-99% herbicidal effect, phytotoxicity)
15 | CCC1(C(F)(F)F)CCN(Cc2ccccc2N(C(=O)OC)S(=O)(=O)C(F)(F)F)C(=O)O1 (stereo not shown) [Compound 1-92] | 5 (100% herbicidal effect, phytotoxicity) | 4 (90%-99% herbicidal effect, phytotoxicity) | 5 (100% herbicidal effect, phytotoxicity) | 4 (90%-99% herbicidal effect, phytotoxicity) | 4 (90%-99% herbicidal effect, phytotoxicity)
16 | CCOC(=O)N(c1ccccc1CN1CCC(CC)(C(F)(F)F)OC1=O)S(=O)(=O)C(F)(F)F (stereo not shown) [Compound 1-93] | 5 (100% herbicidal effect, phytotoxicity) | 5 (100% herbicidal effect, phytotoxicity) | 5 (100% herbicidal effect, phytotoxicity) | 4 (90%-99% herbicidal effect, phytotoxicity) | 4 (90%-99% herbicidal effect, phytotoxicity)
17 | CCC1(C(F)(F)F)CCN(Cc2ccccc2N(C(=O)OCC(C)C)S(=O)(=O)C(F)(F)F)C(=O)O1 (stereo not shown) [Compound 1-96] | 5 (100% herbicidal effect, phytotoxicity) | 4 (90%-99% herbicidal effect, phytotoxicity) | 5 (100% herbicidal effect, phytotoxicity) | 4 (90%-99% herbicidal effect, phytotoxicity) | 4 (90%-99% herbicidal effect, phytotoxicity)
